Source: patent US20240238299A1, “USE OF PYRROLOPYRIMIDINE COMPOUND” (GUANGZHOU JOYO PHARMATECH CO., LTD, priority 2021, published 2024)

Assays:
[1] = test system: IL-6 secretion by astrocytes; assay: IL-6 release caused by NMO-IgG in astrocytes (ELISA); assay type: cell-based, rat; settings: Rattus norvegicus, Astrocyte, 24 h, NMO-IgG 250 μg/mL, read-out: IL-6 inhibition rate, Mean
Protocol: The compound was dissolved in DMSO to prepare a compound stock solution. The compound stock solution was then serially diluted in a gradient using DMSO to prepare a series of 1000× test compound solutions. These 1000× test compound solutions were further diluted at a ratio of 1:100 with cell culture medium to prepare a series of 10× test compound solutions. Finally, according to the experimental well plate loading design, a corresponding volume of 10× solution was added to each well, with two duplicate wells for each drug concentration. In the experiment, the test solution (i.e., 1× solution) had varying final concentrations of compound I, specifically 20, 2.222, 0.247, and 0.027 μM; the concentration of Meprednisone compound (i.e., 1× solution) was 30 μM; the concentration of BAY 11-7082 (i.e., 1× solution) was 5 μM; the final DMSO concentration in each well was 0.1%. DMSO without compound was added to blank control wells, with a final concentration of 0.1%.
1) Extraction and separation of primary astrocytes: A mixed glial cell culture medium was prepared from the cerebral cortex of 1-day-old newborn rats. After euthanizing the newborn rats, they were immersed in alcohol. Their skin was cut, the brains were removed, and the cerebral cortex was isolated. The tissues were then ground to remove the connective tissue, and the mixed glial cells were sieved through a 70 µm cell strainer. These cells were then seeded into a cell culture plate coated with poly-L-lysine. The culture medium was DMEM, containing 10% heat-inactivated fetal bovine serum, 100 U/mL penicillin, and […]. After about 12 days of in vitro culture, the cells reached confluence. Microglia, endothelial cells, and oligodendrocytes were removed from the mixed glial cells by vibratory shaking. […] 2) Culture of astrocytes: The isolated astrocytes were cultured in a 37° C., 5% CO2 incubator. The culture medium was changed every 3 to 4 days. The astrocytes could also be digested using trypsin (0.25%) and then frozen in liquid nitrogen for future use.
Human NMO-IgG was isolated from a sterile-filtered serum pool (AQP4-IgG-positive NMOSD) using a HiTrap Protein G-HP column (GE Healthcare). The serum samples were diluted at a ratio of 1:1 with binding buffer, and after packing the purification column with binding buffer, the serum sample was added. The column was subsequently washed with binding buffer again and the antibodies were eluted according to the instructions. Finally, the antibodies were concentrated on an Amicon Ultra-4 centrifugal filter (millipore) with a 10,000 MW cutoff. The concentrated immunoglobulin was filtered through a 0.22 µm filter. The protein concentration of the concentrate was determined using the BCA method and stored at −80° C. The total IgG extracted from the serum of NMOSD patients was NMO-IgG (containing AQP4-IgG), and the cells were stimulated at a protein concentration of 250 μg/mL during the experiment.
Astrocytes were cultured or revived until day 2 and then seeded into a 24-well plate at a density of 1.5×10^5 cells per well. The test compounds, including compound I, Meprednisone, and BAY11-7082, were pre-incubated with the cells for 30 minutes at the concentrations previously described. Subsequently, in each group, the cells continued to be stimulated with NMO-IgG at a final working concentration of 250 μg/mL for 24 hours to induce astrocyte damage. Normal human Control-IgG (CON-IgG) stimulation at a final working concentration of 250 μg/mL was used as a negative control.
After 24 hours of NMO-IgG stimulation of cells, the supernatant was collected. IL-6 levels were detected using an enzyme-linked immunosorbent assay (ELISA) following the instructions of the IL-6 ELISA kit (R&D Systems, USA, #RD6000B). The absorbance (OD values) of the samples in each group was measured, and the concentration of IL-6 in each experimental group was calculated through standard curve fitting. […]

[2] = test system: STAT3 phosphorylation (p-STAT3/STAT3) in spinal cord; assay: EAE mouse model, STAT3 phosphorylation in spinal cord (Western blot); assay type: in vivo, C57BL/6 mice; settings: for inhibition rate of STAT3 phosphorylation in spinal cord: day 28

CN(c1ncnc2[nH]ccc12)[C@@H]1CCc2cc(C#N)nn2C1 [Compound I]
inhibition at 0.027 µM ([1]; 0.027 μM): 30.4% | inhibition at 0.247 µM ([1]; 0.247 μM): 54% | inhibition at 2.222 µM ([1]; 2.222 μM): 94.3% | inhibition at 20 µM ([1]; 20 μM): ~98.8% | inhibition rate of STAT3 phosphorylation in spinal cord ([2]; 10 mg/kg BID): 86% | inhibition rate of STAT3 phosphorylation in spinal cord ([2]; 20 mg/kg BID): 86% | STAT3 phosphorylation in spinal cord ([2]; all dose groups, day 28, 0.25 h after administration): significantly inhibited the level of STAT3 phosphorylation in spinal cord
